Results reported in patent US9981975B2, “Pyrrolotriazine compounds as tam inhibitors” (Incyte Corporation, priority 2016, dated 2018).

Experiments:
Format in all cases: biochemical
phosphor-Axl = phosphor-Axl (Homo sapiens (Human), UniProt P30530); assay: TAM Enzymatic Assay (HTRF), Axl; details: recombinant autophosphorylated Axl, 60 min, room temperature
Tyro3 = Tyro3 (Homo sapiens (Human), UniProt Q06418); assay: TAM Enzymatic Assay (HTRF), Tyro3; details: Tyro3, 60 min, room temperature
Outline: (§1)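 HTRF kinase assay in 50 mM HEPES pH 7.5, 10 mM MgCl2, 1 mM EGTA, 0.01% NP-40, 2 mM DTT; compound in DMSO pre-dispensed, enzyme added, reaction started with substrate, 60 min at room temperature in the dark.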

c-Mer = c-Mer (Homo sapiens (Human), UniProt Q12866); assay: TAM Enzymatic Assay (HTRF), Mer; details: 60 min, room temperature
Sequence of c-Mer (Q12866 21-999): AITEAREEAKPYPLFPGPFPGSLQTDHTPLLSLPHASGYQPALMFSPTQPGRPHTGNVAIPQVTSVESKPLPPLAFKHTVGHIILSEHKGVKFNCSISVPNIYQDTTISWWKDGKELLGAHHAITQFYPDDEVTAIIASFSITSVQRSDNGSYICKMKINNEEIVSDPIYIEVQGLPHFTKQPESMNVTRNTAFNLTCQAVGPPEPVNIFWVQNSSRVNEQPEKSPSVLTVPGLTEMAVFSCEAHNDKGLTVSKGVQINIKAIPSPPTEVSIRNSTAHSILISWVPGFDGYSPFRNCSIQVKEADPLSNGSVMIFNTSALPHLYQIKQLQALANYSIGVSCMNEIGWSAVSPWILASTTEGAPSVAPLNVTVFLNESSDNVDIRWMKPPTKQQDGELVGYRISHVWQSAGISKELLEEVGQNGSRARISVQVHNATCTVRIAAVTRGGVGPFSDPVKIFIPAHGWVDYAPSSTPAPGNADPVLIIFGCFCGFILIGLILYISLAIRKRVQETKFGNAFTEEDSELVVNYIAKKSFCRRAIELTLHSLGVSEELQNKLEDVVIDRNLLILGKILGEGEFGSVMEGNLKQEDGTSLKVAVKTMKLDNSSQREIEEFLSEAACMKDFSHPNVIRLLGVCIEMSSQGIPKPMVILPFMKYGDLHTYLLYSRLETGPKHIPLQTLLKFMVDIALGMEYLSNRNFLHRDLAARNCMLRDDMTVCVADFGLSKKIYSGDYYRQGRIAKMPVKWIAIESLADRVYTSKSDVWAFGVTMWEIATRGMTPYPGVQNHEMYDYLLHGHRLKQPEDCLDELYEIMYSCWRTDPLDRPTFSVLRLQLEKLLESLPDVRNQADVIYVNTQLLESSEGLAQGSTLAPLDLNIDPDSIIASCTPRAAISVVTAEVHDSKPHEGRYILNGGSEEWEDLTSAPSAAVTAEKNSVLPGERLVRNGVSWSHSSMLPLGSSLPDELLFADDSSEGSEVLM
Outline: as §1

Sequence of phosphor-Axl (P30530 26-894): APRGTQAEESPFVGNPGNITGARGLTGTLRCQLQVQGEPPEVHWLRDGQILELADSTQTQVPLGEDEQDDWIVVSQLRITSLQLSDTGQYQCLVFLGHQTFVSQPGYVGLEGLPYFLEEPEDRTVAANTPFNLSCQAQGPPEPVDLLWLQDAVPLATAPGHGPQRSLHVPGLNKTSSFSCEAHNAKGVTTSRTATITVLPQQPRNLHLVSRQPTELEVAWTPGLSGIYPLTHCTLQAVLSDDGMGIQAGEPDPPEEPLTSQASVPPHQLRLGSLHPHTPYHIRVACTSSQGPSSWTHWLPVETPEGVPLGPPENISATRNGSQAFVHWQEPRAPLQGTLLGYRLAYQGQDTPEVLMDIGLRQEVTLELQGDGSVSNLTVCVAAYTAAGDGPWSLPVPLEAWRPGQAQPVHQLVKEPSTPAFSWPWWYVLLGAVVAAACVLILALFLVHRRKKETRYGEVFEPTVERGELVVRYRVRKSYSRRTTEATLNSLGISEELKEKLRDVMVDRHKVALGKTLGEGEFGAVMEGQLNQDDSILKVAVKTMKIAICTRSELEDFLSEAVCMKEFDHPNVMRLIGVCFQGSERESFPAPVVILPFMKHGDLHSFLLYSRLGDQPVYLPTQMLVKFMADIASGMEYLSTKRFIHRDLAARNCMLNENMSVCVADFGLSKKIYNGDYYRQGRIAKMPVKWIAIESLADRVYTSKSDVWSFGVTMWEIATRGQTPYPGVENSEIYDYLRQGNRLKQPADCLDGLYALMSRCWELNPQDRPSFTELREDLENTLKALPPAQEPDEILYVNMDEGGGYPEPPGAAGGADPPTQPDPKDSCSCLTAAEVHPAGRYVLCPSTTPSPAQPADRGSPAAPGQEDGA
Sequence of Tyro3 (Q06418 41-890): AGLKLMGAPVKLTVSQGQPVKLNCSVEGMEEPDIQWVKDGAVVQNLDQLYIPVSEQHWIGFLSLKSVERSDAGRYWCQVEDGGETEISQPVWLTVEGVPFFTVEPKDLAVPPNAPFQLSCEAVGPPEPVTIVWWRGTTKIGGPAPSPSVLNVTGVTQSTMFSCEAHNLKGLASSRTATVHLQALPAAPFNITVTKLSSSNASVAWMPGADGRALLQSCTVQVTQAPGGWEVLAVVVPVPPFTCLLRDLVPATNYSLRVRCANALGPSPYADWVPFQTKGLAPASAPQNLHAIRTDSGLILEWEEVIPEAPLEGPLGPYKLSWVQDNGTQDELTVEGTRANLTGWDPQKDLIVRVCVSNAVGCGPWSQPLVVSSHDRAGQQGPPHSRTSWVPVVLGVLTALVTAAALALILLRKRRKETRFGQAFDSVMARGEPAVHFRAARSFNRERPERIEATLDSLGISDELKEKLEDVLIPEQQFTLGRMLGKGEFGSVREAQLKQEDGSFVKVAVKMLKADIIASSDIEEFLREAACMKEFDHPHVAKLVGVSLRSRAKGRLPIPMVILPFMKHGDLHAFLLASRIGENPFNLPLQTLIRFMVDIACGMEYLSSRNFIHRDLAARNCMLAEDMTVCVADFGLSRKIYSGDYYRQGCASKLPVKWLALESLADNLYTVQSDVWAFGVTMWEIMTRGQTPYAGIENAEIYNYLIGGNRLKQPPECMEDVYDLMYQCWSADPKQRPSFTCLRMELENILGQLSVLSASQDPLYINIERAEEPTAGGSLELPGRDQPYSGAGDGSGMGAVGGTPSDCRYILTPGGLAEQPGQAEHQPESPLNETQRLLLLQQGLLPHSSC

SMILES | IC50 (phosphor-Axl) | IC50 (Tyro3) | IC50 (c-Mer)
CC(C)n1cc(C(=O)Nc2ccc(-c3cc(C4CCN(C(=O)N(C)C)CC4)n4ncnc(N)c34)cc2)c(=O)n(-c2cccc(F)c2)c1=O [Example 70, N-(4-(4-Amino-7-(1-(dimethylcarbamoyl)piperidin-4-yl)pyrrolo[1,2-f][1,2,4]triazin-5-yl)phenyl)-3-(3-fluorophenyl)-1-isopropyl-2,4-dioxo-1,2,3,4-tetrahydropyrimidine-5-carboxamide] | ≤ 5 nM | 10 to 100 nM | ≤ 5 nM
CC(C)C(=O)N1CCC(c2cc(-c3ccc(NC(=O)c4cc5c(n(-c6ccccc6)c4=O)CCCC5=O)cc3)c3c(N)ncnn23)CC1 [Example 74, N-(4-(4-Amino-7-(1-isobutyrylpiperidin-4-yl)pyrrolo[1,2-f][1,2,4]triazin-5-yl)phenyl)-2,5-dioxo-1-phenyl-1,2,5,6,7,8-hexahydroquinoline-3-carboxamide] | ≤ 5 nM | 10 to 100 nM | ≤ 5 nM
CC(C)C(=O)N1CCC(c2cc(-c3ccc(NC(=O)c4nn(C(C)C)c(=O)n(-c5ccccc5)c4=O)cc3)c3c(N)ncnn23)CC1 [Example 96, N-(4-(4-Amino-7-(1-isobutyrylpiperidin-4-yl)pyrrolo[1,2-f][1,2,4]triazin-5-yl)phenyl)-2-isopropyl-3,5-dioxo-4-phenyl-2,3,4,5-tetrahydro-1,2,4-triazine-6-carboxamide] | ≤ 5 nM | 10 to 100 nM | ≤ 5 nM
Cc1c(-c2cncc(F)c2)c(=O)c(C(=O)Nc2ccc(-c3cc(C4CCN(C(=O)C(C)C)CC4)n4ncnc(N)c34)cc2)cn1C(C)C [Example 98, N-(4-(4-Amino-7-(1-isobutyrylpiperidin-4-yl)pyrrolo[2,1-f][1,2,4]triazin-5-yl)phenyl)-5′-fluoro-1-isopropyl-2-methyl-4-oxo-1,4-dihydro-[3,3′-bipyridine]-5-carboxamide] | ≤ 5 nM | 10 to 100 nM | ≤ 5 nM
Cc1c(-c2cccc(C#N)c2)c(=O)c(C(=O)Nc2ccc(-c3cc(C4CCN(C(=O)C(C)C)CC4)n4ncnc(N)c34)cc2)cn1C(C)C [Example 99, N-(4-(4-Amino-7-(1-isobutyrylpiperidin-4-yl)pyrrolo[2,1-f][1,2,4]triazin-5-yl)phenyl)-5-(3-cyanophenyl)-1-isopropyl-6-methyl-4-oxo-1,4-dihydropyridine-3-carboxamide] | ≤ 5 nM | 10 to 100 nM | ≤ 5 nM
Cc1c(Br)cc(C(=O)Nc2ccc(-c3cc(C4CCN(C(=O)C(C)C)CC4)n4ncnc(N)c34)cc2)c(=O)n1-c1cncc(F)c1 [Example 101, N-(4-(4-Amino-7-(1-isobutyrylpiperidin-4-yl)pyrrolo[1,2-f][1,2,4]triazin-5-yl)phenyl)-5-bromo-1-(5-fluoropyridin-3-yl)-6-methyl-2-oxo-1,2-dihydropyridine-3-carboxamide] | ≤ 5 nM | > 100 nM | ≤ 5 nM
Cc1c(-c2cscn2)cc(C(=O)Nc2ccc(-c3cc(C4CCN(C(=O)C(C)C)CC4)n4ncnc(N)c34)cc2)c(=O)n1-c1cncc(F)c1 [Example 103, N-(4-(4-Amino-7-(1-isobutyrylpiperidin-4-yl)pyrrolo[2,1-f][1,2,4]triazin-5-yl)phenyl)-5′-fluoro-6-methyl-2-oxo-5-(thiazol-4-yl)-2H-[1,3′-bipyridine]-3-carboxamide] | ≤ 5 nM | 10 to 100 nM | ≤ 5 nM
Cc1cc(C(=O)Nc2ccc(-c3cc(C4CCN(C(=O)C(C)C)CC4)n4ncnc(N)c34)cc2)c(=O)n(-c2ccccc2)c1-c1cccnc1 [Example 106, N-(4-(4-Amino-7-(1-isobutyrylpiperidin-4-yl)pyrrolo[2,1-f][1,2,4]triazin-5-yl)phenyl)-3-methyl-6-oxo-1-phenyl-1,6-dihydro-[2,3′-bipyridine]-5-carboxamide] | ≤ 5 nM | > 100 nM | ≤ 5 nM
Cc1c(-c2ncccn2)cc(C(=O)Nc2ccc(-c3cc(C4CCN(C(=O)C(C)C)CC4)n4ncnc(N)c34)cc2)c(=O)n1-c1ccccc1 [Example 108, N-{4-[4-Amino-7-(1-isobutyrylpiperidin-4-yl)pyrrolo[2,1-f][1,2,4]triazin-5-yl]phenyl}-6-methyl-2-oxo-1-phenyl-5-pyrimidin-2-yl-1,2-dihydropyridine-3-carboxamide] | ≤ 5 nM | 10 to 100 nM | ≤ 5 nM
Cc1c(C#N)cc(C(=O)Nc2ccc(-c3cc(C4CCN(C(=O)C(C)C)CC4)n4ncnc(N)c34)cc2)c(=O)n1-c1ccccc1 [Example 111, N-(4-(4-Amino-7-(1-isobutyrylpiperidin-4-yl)pyrrolo[2,1-f][1,2,4]triazin-5-yl)phenyl)-5-cyano-6-methyl-2-oxo-1-phenyl-1,2-dihydropyridine-3-carboxamide] | ≤ 5 nM | > 100 nM | ≤ 5 nM

Further lines, results first:

IC50 (phosphor-Axl) | IC50 (Tyro3) | IC50 (c-Mer) | SMILES
≤ 5 nM | 10 to 100 nM | ≤ 5 nM | CC(C)C(=O)N1CCC(c2cc(-c3ccc(NC(=O)c4cn(C(C)C)c(=O)n(-c5ccccc5)c4=O)cc3F)c3c(N)ncnn23)CC1 [Example 75, N-(4-(4-Amino-7-(1-isobutyrylpiperidin-4-yl)pyrrolo[1,2-f][1,2,4]triazin-5-yl)-3-fluorophenyl)-1-isopropyl-2,4-dioxo-3-phenyl-1,2,3,4-tetrahydropyrimidine-5-carboxamide]
≤ 5 nM | 10 to 100 nM | ≤ 5 nM | CC(C)C(=O)N1CCC(c2cc(-c3ccc(NC(=O)c4cn(C(C)C)c(=O)n(-c5cccnc5)c4=O)cc3)c3c(N)ncnn23)CC1 [Example 78, N-(4-(4-Amino-7-(1-isobutyrylpiperidin-4-yl)pyrrolo[1,2-f][1,2,4]triazin-5-yl)phenyl)-1-isopropyl-2,4-dioxo-3-(pyridin-3-yl)-1,2,3,4-tetrahydropyrimidine-5-carboxamide]
≤ 5 nM | 10 to 100 nM | ≤ 5 nM | CCn1cc(C(=O)Nc2ccc(-c3cc(C4CCN(C(=O)[C@@H](C)O)CC4)n4ncnc(N)c34)cc2)c(=O)n(-c2ccc(F)cc2)c1=O [Example 79, (R)—N-(4-(4-Amino-7-(1-(2-hydroxypropanoyl)piperidin-4-yl)pyrrolo[1,2-f][1,2,4]triazin-5-yl)phenyl)-1-ethyl-3-(4-fluorophenyl)-2,4-dioxo-1,2,3,4-tetrahydropyrimidine-5-carboxamide]
≤ 5 nM | 10 to 100 nM | ≤ 5 nM | CC(C)n1cc(C(=O)Nc2ccc(-c3cc(C4CCN(CC(=O)N(C)C)CC4)n4ncnc(N)c34)cc2)c(=O)n(-c2ccccc2)c1=O [Example 81, N-(4-(4-Amino-7-(1-(2-(dimethylamino)-2-oxoethyl)piperidin-4-yl)pyrrolo[1,2-f][1,2,4]triazin-5-yl)phenyl)-1-isopropyl-2,4-dioxo-3-phenyl-1,2,3,4-tetrahydropyrimidine-5-carboxamide]
≤ 5 nM | 10 to 100 nM | ≤ 5 nM | CC(C)C(=O)N1CCC(c2cc(-c3ccc(NC(=O)c4cn(C(C)C)c(=O)n(-c5ccccn5)c4=O)cc3)c3c(N)ncnn23)CC1 [Example 83, N-(4-(4-Amino-7-(1-isobutyrylpiperidin-4-yl)pyrrolo[1,2-f][1,2,4]triazin-5-yl)phenyl)-1-isopropyl-2,4-dioxo-3-(pyridin-2-yl)-1,2,3,4-tetrahydropyrimidine-5-carboxamide]
≤ 5 nM | > 100 nM | ≤ 5 nM | CC(C)C(=O)N1CCC(c2cc(-c3ccc(NC(=O)c4cn(C(C)C)c(=O)n(-c5cnn(C)c5)c4=O)cc3)c3c(N)ncnn23)CC1 [Example 87, N-(4-(4-Amino-7-(1-isobutyrylpiperidin-4-yl)pyrrolo[2,1-f][1,2,4]triazin-5-yl)phenyl)-1-isopropyl-3-(1-methyl-1H-pyrazol-4-yl)-2,4-dioxo-1,2,3,4-tetrahydropyrimidine-5-carboxamide]
≤ 5 nM | 10 to 100 nM | ≤ 5 nM | CC(C)C(=O)N1CCC(c2cc(-c3ccc(NC(=O)c4cn(C(C)C)c(=O)n(-c5ccn(C)n5)c4=O)cc3)c3c(N)ncnn23)CC1 [Example 88, N-(4-(4-Amino-7-(1-isobutyrylpiperidin-4-yl)pyrrolo[2,1-f][1,2,4]triazin-5-yl)phenyl)-1-isopropyl-3-(1-methyl-1H-pyrazol-3-yl)-2,4-dioxo-1,2,3,4-tetrahydropyrimidine-5-carboxamide]
≤ 5 nM | ≤ 5 nM | ≤ 5 nM | CC(C)n1cc(C(=O)Nc2ccc(-c3cc(C4CCC(N(C)C)CC4)n4ncnc(N)c34)cc2)c(=O)n(-c2ccccc2)c1=O (stereo not drawn) [Example 93, N-(4-(4-Amino-7-(4-(dimethylamino)cyclohexyl)pyrrolo[2,1-f][1,2,4]triazin-5-yl)phenyl)-1-isopropyl-2,4-dioxo-3-phenyl-1,2,3,4-tetrahydropyrimidine-5-carboxamide]
≤ 5 nM | 10 to 100 nM | ≤ 5 nM | Cc1c(CC#N)cc(C(=O)Nc2ccc(-c3cc(C4CCN(C(=O)C(C)C)CC4)n4ncnc(N)c34)cc2)c(=O)n1-c1cncc(F)c1 [Example 102, N-(4-(4-Amino-7-(1-isobutyrylpiperidin-4-yl)pyrrolo[2,1-f][1,2,4]triazin-5-yl)phenyl)-5-(cyanomethyl)-5′-fluoro-6-methyl-2-oxo-2H-[1,3′-bipyridine]-3-carboxamide]
≤ 5 nM | 5 to 10 nM | ≤ 5 nM | Cc1c(-c2ncccn2)cc(C(=O)Nc2ccc(-c3cc(C4CCN(C)CC4)n4ncnc(N)c34)cc2)c(=O)n1-c1ccccc1 [Example 109]
≤ 5 nM | 10 to 100 nM | ≤ 5 nM | CC(C)C(=O)N1CCC(c2cc(-c3ccc(NC(=O)c4cc5c(n(-c6cncc(F)c6)c4=O)CCCC5=O)cc3)c3c(N)ncnn23)CC1 [Example 113, N-(4-(4-Amino-7-(1-isobutyrylpiperidin-4-yl)pyrrolo[1,2-f][1,2,4]triazin-5-yl)phenyl)-1-(5-fluoropyridin-3-yl)-2,5-dioxo-1,2,5,6,7,8-hexahydroquinoline-3-carboxamide]
